Results published in article PMC9454848, “BMS-986158, a Small Molecule Inhibitor of the Bromodomain and Extraterminal Domain Proteins, in Patients with Selected Advanced Solid Tumors: Results from a Phase 1/2a Trial” (Cancers, 2022).
Where “and” joins values, the source holds several entries; their conditions need not be identical. Equal entries are not always repeated. Marks after values point to notes of the source that are not given here.

Tested on: patients with advanced solid tumors
Assay: Treatment-related adverse events and dose-limiting toxicities, phase 1/2a trial CA011-001
Assay type: in vivo
Procedure: CA011-001 was an open-label study of BMS-986158 monotherapy. Part 1 of the study included a dose-escalation segment and Part 2 was a dose-expansion phase. In Part 1, escalation occurred with an initial dose of BMS-986158 and increased in prespecified increments above the previous dose level until the first occurrence of any protocol-defined dose-limiting toxicity (DLT). Overall, 3 dosing schedules were evaluated to test safety and efficacy (Supplemental Figure S1). Each patient on schedules A, B, and C was administered a single oral dose of BMS-986158 on cycle 1 day 1 (C1D1), and no additional doses were administered until cycle 2 day 1 (C2D1; ≈7 days after C1D1). Beginning on C2D1 and for each subsequent cycle, patients received treatment according to the following schedules. On schedule A, BMS-986158 was administered once daily (QD) for 5 days on and 2 days off with 0.75-, 1.25-, 2.0-, 3.0-, and 4.5-mg escalating doses. On schedule B, patients received BMS-986158 QD for 14 days on and 7 days off with 2.0- and 3.0-mg doses. On schedule C, BMS-986158 QD was given for 7 days on and 14 days off with 2.0-, 3.0-, and 4.5-mg doses. Dose escalation was guided by a modified toxicity probability interval (mTPI) design. In the mTPI design, 3 to 4 patients would be enrolled at each dose level; if a DLT was observed, an additional 3 to 4 patients would be evaluated at the same dose level, up to a total of 13 patients. If no DLTs occurred, 3 to 4 patients would be enrolled at the next dose level. The target DLT rate was 27% to determine the maximum tolerated dose (MTD). For Part 2 of this trial (the dose-expansion phase), schedule A dosing was selected based on safety, pharmacodynamics, and PK data collected in Part 1. The dosing regimen for Part 2 was 4.5 mg for 2 weeks (10 doses) followed by 3.75 mg for the remainder of treatment. However, because study CA011-001 was terminated early with 1 patient enrolled in Part 2, we have grouped this patient with the schedule A, 4.5-mg cohort in Part 1 for the remainder of this report.
Safety was assessed as adverse events (AEs) coded by the Medical Dictionary for Regulatory Activities version 24.0 and the National Cancer Institute’s Common Terminology Criteria for Adverse Events version 4.03. In addition, AEs were classified by whether they were considered possibly or probably treatment related (TRAEs) by investigator assessment, qualified as a serious AE, or led to interruption or discontinuation of study therapy.
All treated patients who received ≥1 dose of BMS-986158 were evaluated in the safety population. […] All treated patients with available and sufficient serum or plasma samples for the corresponding analytes were included in the PK analyses. […] ECG parameters were evaluated in a categorical analysis, and linear mixed-effects regression modeling was used to describe the quantitative relationship between ΔQTcF and time-matched serum concentrations of BMS-986158 or its metabolite at a single dose.
Descriptive summary statistics, including means and 95% CIs, were calculated using the Clopper-Pearson method for ORR and Kaplan–Meier method for PFS and OS. During dose escalation, an mTPI design targeted a 27% DLT rate to guide escalation decisions and the MTD selection. In the dose-escalation segment, the target enrollment was up to 30 patients per schedule and 3–13 DLT-evaluable patients at a dose level, with an aim to determine the MTD. The totality of the data, including PK, pharmacodynamics, and patient overall safety, including at lower dose levels, was also used to select the RP2D.

[1] = Schedule A (5 days on, 2 days off), n = 46
[2] = Schedule B (14 days on, 7 days off), n = 8
[3] = Schedule C (7 days on, 14 days off), n = 29

Structure (SMILES): Cc1nnn(C)c1-c1cnc2c3ccc(C(C)(C)O)cc3n([C@H](c3ccccc3)C3CCOCC3)c2c1 [BMS-986158]
- Treatment discontinuation due to a TRAE (grade 3 myocardial infarction) (1 patient, schedule A group at the 4.5-mg dose, of all patients): 1.2%
- Incidence of TRAEs (Schedule A (5 days on, 2 days off)): 72% and 71.7%
- Anemia (TRAE), any grade [1]: 6 (13.0) n (%)
- Anemia (TRAE), grade ≥ 3 [1]: 2 (4.3) n (%)
- Decreased appetite (TRAE), any grade [1]: 5 (10.9) n (%)
- Decreased appetite (TRAE), grade ≥ 3 [1]: 0 n (%)
- Diarrhea (TRAE), any grade [1]: 19 (41.3) n (%)
- Diarrhea (TRAE), grade ≥ 3 [1]: 0 n (%)
- Discontinuations due to TRAEs, any grade [1]: 1 (2.2) ^d n (%)
- Discontinuations due to TRAEs, grade ≥ 3 [1]: 1 (2.2) ^d n (%)
- Fatigue (TRAE), any grade [1]: 8 (17.4) n (%)
- Fatigue (TRAE), grade ≥ 3 [1]: 2 (4.3) n (%)
- Nausea (TRAE), any grade [1]: 7 (15.2) n (%)
- Nausea (TRAE), grade ≥ 3 [1]: 1 (2.2) n (%)
- Patients with any TRAE, any grade [1]: 33 (71.7) n (%)
- Patients with any TRAE, grade ≥ 3 [1]: 19 (41.3) n (%)
- Serious TRAEs, any grade [1]: 3 (6.5) ^a,d n (%)
- Serious TRAEs, grade ≥ 3 [1]: 3 (6.5) ^a,d n (%)
- Thrombocytopenia (TRAE), any grade [1]: 20 (43.5) n (%)
- Thrombocytopenia (TRAE), grade ≥ 3 [1]: 16 (34.8) n (%)
- Vomiting (TRAE), any grade [1]: 5 (10.9) n (%)
- Vomiting (TRAE), grade ≥ 3 [1]: 0 n (%)
- DLT grade 4 thrombocytopenia (Schedule A, 2.0 mg): 1/13
- DLT grade 4 thrombocytopenia (Schedule A, 3.0 mg): 1/10
- DLT grade 4 thrombocytopenia (Schedule A, 4.5 mg): 2/13
- Serious TRAEs, incidence (Schedule A, 3 of 46 patients): 6.5%
- Anemia (TRAE), any grade [2]: 2 (25.0) n (%)
- Anemia (TRAE), grade ≥ 3 [2]: 2 (25.0) n (%)
- Decreased appetite (TRAE), any grade [2]: 4 (50.0) n (%)
- Decreased appetite (TRAE), grade ≥ 3 [2]: 0 n (%)
- Diarrhea (TRAE), any grade [2]: 4 (50.0) n (%)
- Diarrhea (TRAE), grade ≥ 3 [2]: 0 n (%)
- Discontinuations due to TRAEs, any grade [2]: 0 n (%)
- Discontinuations due to TRAEs, grade ≥ 3 [2]: 0 n (%)
- Fatigue (TRAE), any grade [2]: 4 (50) n (%)
- Fatigue (TRAE), grade ≥ 3 [2]: 1 (12.5) n (%)
- Incidence of TRAEs [2]: 100%
- Nausea (TRAE), any grade [2]: 1 (12.5) n (%)
- Nausea (TRAE), grade ≥ 3 [2]: 1 (12.5) n (%)
- Patients with any TRAE, any grade [2]: 8 (100.0) n (%)
- Patients with any TRAE, grade ≥ 3 [2]: 4 (50.0) n (%)
- Serious TRAEs, any grade [2]: 2 (25.0) ^b n (%)
- Serious TRAEs, grade ≥ 3 [2]: 2 (25.0) ^b n (%)
- Thrombocytopenia (TRAE), any grade [2]: 5 (62.5) n (%)
- Thrombocytopenia (TRAE), grade ≥ 3 [2]: 2 (25.0) n (%)
- Vomiting (TRAE), any grade [2]: 2 (25.0) n (%)
- Vomiting (TRAE), grade ≥ 3 [2]: 1 (12.5) n (%)
- DLT grade 4 thrombocytopenia (Schedule B, 3.0 mg): 2/4
- Serious TRAEs, incidence (Schedule B, 2 of 8 patients): 25.0%
- Incidence of TRAEs (Schedule C (7 days on, 14 days off)): 72% and 72.4%
- Anemia (TRAE), any grade [3]: 4 (13.8) n (%)
- Anemia (TRAE), grade ≥ 3 [3]: 1 (3.4) n (%)
- Decreased appetite (TRAE), any grade [3]: 3 (10.3) n (%)
- Decreased appetite (TRAE), grade ≥ 3 [3]: 0 n (%)
- Diarrhea (TRAE), any grade [3]: 13 (44.8) n (%)
- Diarrhea (TRAE), grade ≥ 3 [3]: 0 n (%)
- Discontinuations due to TRAEs, any grade [3]: 0 n (%)
- Discontinuations due to TRAEs, grade ≥ 3 [3]: 0 n (%)
- Fatigue (TRAE), any grade [3]: 4 (13.8) n (%)
- Fatigue (TRAE), grade ≥ 3 [3]: 0 n (%)
- Nausea (TRAE), any grade [3]: 6 (20.7) n (%)
- Nausea (TRAE), grade ≥ 3 [3]: 0 n (%)
- Patients with any TRAE, any grade [3]: 21 (72.4) n (%)
- Patients with any TRAE, grade ≥ 3 [3]: 5 (17.2) n (%)
- Serious TRAEs, any grade [3]: 0 n (%)
- Serious TRAEs, grade ≥ 3 [3]: 0 n (%)
- Thrombocytopenia (TRAE), any grade [3]: 7 (24.1) n (%)
- Thrombocytopenia (TRAE), grade ≥ 3 [3]: 3 (10.3) n (%)
- Vomiting (TRAE), any grade [3]: 3 (10.3) n (%)
- Vomiting (TRAE), grade ≥ 3 [3]: 1 (3.4) n (%)
- Serious TRAEs (Schedule C cohort (n = 29)): no serious TRAEs were reported
- DLT grade 4 thrombocytopenia (Schedule C, 4.5 mg): 2/10
- Anemia (TRAE), any grade (Total, N = 83): 12 (14.5) n (%)
- Anemia (TRAE), grade ≥ 3 (Total, N = 83): 5 (6.0) n (%)
- Decreased appetite (TRAE), any grade (Total, N = 83): 12 (14.5) n (%)
- Decreased appetite (TRAE), grade ≥ 3 (Total, N = 83): 0 n (%)
- Diarrhea (TRAE), any grade (Total, N = 83): 36 (43.4) n (%)
- Diarrhea (TRAE), grade ≥ 3 (Total, N = 83): 0 n (%)
- Discontinuations due to TRAEs, any grade (Total, N = 83): 1 (1.2) ^d n (%)
- Discontinuations due to TRAEs, grade ≥ 3 (Total, N = 83): 1 (1.2) ^d n (%)
- Fatigue (TRAE), any grade (Total, N = 83): 16 (19.3) n (%)
- Fatigue (TRAE), grade ≥ 3 (Total, N = 83): 3 (3.6) n (%)
- Nausea (TRAE), any grade (Total, N = 83): 14 (16.9) n (%)
- Nausea (TRAE), grade ≥ 3 (Total, N = 83): 2 (2.4) n (%)
- Patients with any TRAE, any grade (Total, N = 83): 62 (74.7) n (%)
- Patients with any TRAE, grade ≥ 3 (Total, N = 83): 28 (33.7) n (%)
- Serious TRAEs, any grade (Total, N = 83): 5 (6.0) ^c,d n (%)
- Serious TRAEs, grade ≥ 3 (Total, N = 83): 5 (6.0) ^c,d n (%)
- Thrombocytopenia (TRAE), any grade (Total, N = 83): 32 (38.6) n (%)
- Thrombocytopenia (TRAE), grade ≥ 3 (Total, N = 83): 21 (25.3) n (%)
- Vomiting (TRAE), any grade (Total, N = 83): 10 (12.0) n (%)
- Vomiting (TRAE), grade ≥ 3 (Total, N = 83): 2 (2.4) n (%)
- Anemia as any-grade TRAE, incidence (all patients): 14.5%
- Decreased appetite as any-grade TRAE, incidence (all patients): 14.5%
- Fatigue as any-grade TRAE, incidence (all patients): 19.3%
- Nausea as any-grade TRAE, incidence (all patients): 16.9%
- Thrombocytopenia as grade ≥ 3 TRAE, incidence (all patients): 25.3%
- Vomiting as any-grade TRAE, incidence (all patients): 12.0%
- Thrombocytopenia as TRAE, incidence (all patients, any grade): 39% and 38.6%
- Diarrhea as TRAE, incidence (all treatment schedule cohorts, 83 patients, any grade): 43% and 43.4%
- Patients who experienced DLTs (among 83 patients, all in part 1): 9
- Patients with grade 3 nausea as a DLT (of 4 patients, Schedule B, 2.0-mg cohort): 1
- Serious TRAEs, incidence (overall study population, 5 of 83 patients): 6%
